From US20130053336A1, “TREATMENT OF CHLAMYDIACEAE INFECTIONS BY MEANS OF BETA-LACTAMS” (priority 2010, published 2013)
≈ marks a conversion by molar mass, not a printed value. Structures can show the parent of a compound that is named as a salt.

B1: IFN-γ: Recombinant human IFN-γ, a well-known inducer of persistence (protein, UniProt P01579 24-161, looked up)
Interferon gamma: QDPYVKEAENLKKYFNAGHSDVADNGTLFLGILKNWKEESDRKIMQSQIVSFYFKLFKNFKDDQSIQKSVETIKEDMNVKFFNSNKKKRDDFEKLTNYSVTDLNVQRKAIHELIQVMAELSPAAKTGKRKRSQMLFRG

Each molecule was assayed on Chlamydia trachomatis serovar L2 (assay: Minimum bactericidal concentration (titration of infectious ability of bacteria from treated infected cells)). Conditions: not given.
Format: cell-based
Procedure: (§1) It was first sought to verify whether other molecules of the β-lactam family could induce in vitro the same abnormal and noninfectious forms of Chlamydia trachomatis as that produced in the presence of penicillin G. Titration experiments were performed on the infectious ability of bacteria from infected cells treated with different β-lactams. Cytotoxicity and minimum bactericidal concentration (MBC) were determined for each of these molecules. It was also verified whether all of these β-lactams have bactericidal action on persistent forms of Chlamydia trachomatis produced in vitro under the effect of IFN-γ.
CC1(C)[C@H](C(=O)O)N2C(=O)C[C@H]2S1(=O)=O [Sulbactam sodium] gave an MBC of 10 µM.

Same assay, conditions: minimum bactericidal concentration, read-out: MBC
O=C(O)[C@H]1/C(=C/CO)O[C@@H]2CC(=O)N21 [Potassium clavulanate] gave an MBC of 1 µM. With C=CC1=C(C(=O)O)N2C(=O)[C@@H](NC(=O)/C(=N\OCC(=O)O)c3csc(N)n3)[C@H]2SC1 [Cefixime trihydrate] the MBC was 300 µM. Molecule Cc1onc(-c2ccccc2Cl)c1C(=O)N[C@@H]1C(=O)N2[C@@H]1SC(C)(C)[C@@H]2C(=O)O [Cloxacillin sodium salt hydrate] has an MBC of 3 µM. C[C@@H](O)[C@H]1C(=O)N2C(C(=O)O)=C(SCCN=CN)C[C@H]12 [Imipenem monohydrate] showed an MBC of 300 µM. CC1(C)S[C@@H]2[C@H](/N=C/N3CCCCCC3)C(=O)N2[C@H]1C(=O)O [Mecillinam] was tested, and the MBC was 3 µM (≈ 0.976 µg/mL). Molecule C[C@]1(Cn2ccnn2)[C@H](C(=O)O)N2C(=O)C[C@H]2S1(=O)=O [Tazobactam sodium salt] has an MBC of 30 µM. CC1(C)S[C@@H]2[C@H](NC(=O)COc3ccccc3)C(=O)N2[C@H]1C(=O)O [Penicillin V potassium salt] was tested, and the MBC was 0.3 µM. CC1=C(C(=O)O)N2C(=O)[C@@H](NC(=O)[C@H](N)c3ccc(O)cc3)[C@H]2SC1 [Cefadroxil] was tested, and the MBC was 10 µM (≈ 3.63 µg/mL). In the case of CC1(C)S[C@@H]2[C@H](NC(=O)[C@H](N)c3ccc(O)cc3)C(=O)N2[C@H]1C(=O)O [Amoxicillin trihydrate], the MBC is reported as 0.3 µM.

Same assay, conditions: read-out: MBC, bound in parentheses below the value
CC1(C)[C@H](C(=O)O)N2C(=O)C[C@H]2S1(=O)=O [Sulbactam sodium] was tested, and the MBC was greater than 3 µM.

Same assay, conditions: second line of the MBC cell, read-out: MBC, bound in parentheses below the value
Molecule O=C(O)[C@H]1/C(=C/CO)O[C@@H]2CC(=O)N21 [Potassium clavulanate] has an MBC greater than 0.3 µM. Molecule C=CC1=C(C(=O)O)N2C(=O)[C@@H](NC(=O)/C(=N\OCC(=O)O)c3csc(N)n3)[C@H]2SC1 [Cefixime trihydrate] has an MBC greater than 100 µM. Work on Cc1onc(-c2ccccc2Cl)c1C(=O)N[C@@H]1C(=O)N2[C@@H]1SC(C)(C)[C@@H]2C(=O)O [Cloxacillin sodium salt hydrate] yielded an MBC greater than 1 µM. C[C@@H](O)[C@H]1C(=O)N2C(C(=O)O)=C(SCCN=CN)C[C@H]12 [Imipenem monohydrate] gave an MBC greater than 100 µM. In the case of CC1(C)S[C@@H]2[C@H](/N=C/N3CCCCCC3)C(=O)N2[C@H]1C(=O)O [Mecillinam], the MBC is reported as greater than 1 µM. C[C@]1(Cn2ccnn2)[C@H](C(=O)O)N2C(=O)C[C@H]2S1(=O)=O [Tazobactam sodium salt] showed an MBC greater than 10 µM. CC1(C)S[C@@H]2[C@H](NC(=O)COc3ccccc3)C(=O)N2[C@H]1C(=O)O [Penicillin V potassium salt] was tested, and the MBC was greater than 0.1 µM. Work on CC1=C(C(=O)O)N2C(=O)[C@@H](NC(=O)[C@H](N)c3ccc(O)cc3)[C@H]2SC1 [Cefadroxil] yielded an MBC greater than 3 µM. CC1(C)S[C@@H]2[C@H](NC(=O)[C@H](N)c3ccc(O)cc3)C(=O)N2[C@H]1C(=O)O [Amoxicillin trihydrate] gave an MBC greater than 0.1 µM.

What follows are molecules tested on Chlamydia trachomatis serovar L2 (assay: Development and morphology of inclusions in infected HeLa cells (microscopy)). Conditions: infected HeLa cells, videomicroscopy / culture for 4 days.
Format: cell-based
Procedure: HeLa cells were infected with Chlamydia trachomatis serovar L2 and treated with IFN-γ (100 ng/ml), penicillin G (100 U/ml) or gentamicin ([…]). At various times after infection (hours post-infection (hpi)), the cells were fixed and stained with an antibody against Chlamydia sp. (green in the original figure) and with Hoechst (blue in the original figure). The infected HeLa cells treated with penicillin G have abnormal bodies that grow and that are phenotypically quite different from those formed during treatment with IFN-γ. The bodies formed with penicillin G are appreciably different from “classic” persistent bodies. To examine the effects of penicillin G on cell infection with Chlamydia, the host cells were cultivated up to 70% confluence without antibiotics, and then were infected with C. trachomatis strain […]. muridarum at 1 IFU. The infections were carried out at 37° C. for 90 minutes with centrifugation, followed by a washing of extracellular bacteria. At 3 hpi, after the washings, the culture medium was replaced with medium containing either 25 μg/ml gentamicin or 1-100 IU/ml penicillin G. At regular intervals after treatment with penicillin G, the cultures were either fixed in 4% neutral buffered PFA for 30 minutes to be prepared for confocal microscopy, or collected to determine the infectivity of the progeny bacteria, according to the previously described method (Verbeke, P. et al. PLoS Pathog 2:e45, 2006). HeLa cells cultured in monolayers on slides were infected with serovar L2 with an IFU of 1, as described above (Verbeke, P. et al. PLoS Pathog 2:e45, 2006). Three hours after the infection, the medium was removed and replaced with culture medium containing 500 IU/ml (final concentration) recombinant human IFN-γ.
With B1 the “growth of the bacterial inclusions” value was “remains constant”.

The molecules below were run on Chlamydia trachomatis L2 serovar 16S rRNA (assay: 16S rRNA expression by RT-PCR). Conditions: 100 hpi.
Format: cell-based
Excerpt: HeLa cells were infected with the Chlamydia trachomatis L2 serovar and treated or not treated with penicillin G at 3 hpi. At 100 hpi, the cells were collected and the RNA extracted carefully to avoid DNA contamination. Half of the isolated RNA was used for reverse transcription. The RNA and cDNA were amplified by PCR with primers for 16S (bacterial) and 18S (eukaryotic) rRNA in order to study bacterial activity and to verify cDNA quality and quantity. PCR of the RNA is used to verify the absence of DNA contamination. It also indicates the absence of contaminant in the PCR. […] Roughly 1×10^5 HeLa cells were infected and exposed or not exposed to penicillin G, as described above. At 100 hpi, total RNA were isolated using the RNeasy Plus Mini Kit (Qiagen, Hilden, Germany). The samples were treated with DNase I for 1 hour at 37° C. The enzyme was then denatured at 70° C. for 10 min. The RNA were reverse-transcribed into cDNA using random hexamer primers and AffinityScript Multiple Temperature Reverse Transcriptase (Agilent, Santa Clara, Calif., USA) and by following the manufacturer's instructions for RT-PCR. cDNA and RNA were amplified by PCR with Tag Polymerase (Invitrogen, Carlsbad, Calif., USA) in order to verify the absence of DNA contamination. The primers used to amplify 16S rRNA are: A semi-quantitative analysis of the PCR products was carried out by agarose gel electrophoresis and UV detection.
In the case of gentamicin, the “16S rRNA expression in infected cells” value is reported as “amplified”. In the case of B1, the “16S rRNA expression in infected cells” value is reported as “amplified”.

Each molecule was assayed on Chlamydia trachomatis inclusions (assay: Fusion of lysosomes with inclusions (cathepsin D, LysoTracker, confocal microscopy)). Conditions: HeLa, 24 hpi.
Format: cell-based
B1 was tested, and the “localization of cathepsin D in inclusions” value was “excluded from normal and persistent inclusions”.

What follows are molecules tested on Cells Infected with Chlamydia trachomatis serovar L2 (assay: Cytotoxicity of β-lactams). Conditions: given as 0.
Format: cell-based
Procedure: as §1
In the case of Cc1onc(-c2ccccc2Cl)c1C(=O)N[C@@H]1C(=O)N2[C@@H]1SC(C)(C)[C@@H]2C(=O)O [Cloxacillin sodium salt hydrate], the Cytotox. is reported as 0. For C[C@@H](O)[C@H]1C(=O)N2C(C(=O)O)=C(SCCN=CN)C[C@H]12 [Imipenem monohydrate], the Cytotox. was 0. For CC1(C)S[C@@H]2[C@H](/N=C/N3CCCCCC3)C(=O)N2[C@H]1C(=O)O [Mecillinam], the Cytotox. was 0. C[C@]1(Cn2ccnn2)[C@H](C(=O)O)N2C(=O)C[C@H]2S1(=O)=O [Tazobactam sodium salt] gave a Cytotox. of 0. In the case of CC1(C)S[C@@H]2[C@H](NC(=O)COc3ccccc3)C(=O)N2[C@H]1C(=O)O [Penicillin V potassium salt], the Cytotox. is reported as 0. With CC1=C(C(=O)O)N2C(=O)[C@@H](NC(=O)[C@H](N)c3ccc(O)cc3)[C@H]2SC1 [Cefadroxil] the Cytotox. was 0. With CC1(C)S[C@@H]2[C@H](NC(=O)[C@H](N)c3ccc(O)cc3)C(=O)N2[C@H]1C(=O)O [Amoxicillin trihydrate] the Cytotox. was 0.

Same assay, conditions: printed as a concentration bound
With O=C(O)[C@H]1/C(=C/CO)O[C@@H]2CC(=O)N21 [Potassium clavulanate] the Cytotox. was greater than 50 µM. C=CC1=C(C(=O)O)N2C(=O)[C@@H](NC(=O)/C(=N\OCC(=O)O)c3csc(N)n3)[C@H]2SC1 [Cefixime trihydrate] gave a Cytotox. greater than 400 µM.
